According to patent US20080199520A1, “S-Adenosyl-L-Methionine for Regulating Behavioral Disorders in Pets” (VIRBAC, priority 2005, published 2008):
Like-named read-outs stand apart in the source and are kept apart here.

Tests used:
[1] = tested on: old dogs with behavioral disorders; experiment: Randomized double-blind placebo-controlled study on reduced mental capacity of old dogs (Example 4); type: in vivo
Description: These behavioral disorders manifested themselves as follows: disorientation, decrease in activity, decrease in social interactions, changes in activity-sleep cycle, lack of cleanliness, anxiety.
The dogs were randomly assigned to one of two treatment groups: SAMe or placebo. […]
The dogs were examined by an investigator at the start of the experiment and then at 30 days and 60 days.
The examinations looked at the various behavioral disorders of the animals, which were evaluated on a scale of 0 to 3 according to their intensity, and all the scores were added together to give a “standardized geriatric behavior score” reflecting the severity of the problems observed.

[2] = tested on: old cats with cognitive disorders
Description: A study was conducted to show the effects of S-adenosyl-L-methionine on age-related behavioral disorders in cats.
SAMe was administered in the form of tablets containing 90 mg of an S-adenosyl-L-methionine salt (the 1,4-butanedisulfonate).
The tablets were given once a day for a period of 3 consecutive months to comply with the following doses: • Mean dose: 18 (±3.4) mg/kg/d; minimum dose: 12.9 mg/kg/d; maximum dose: 22.5 mg/kg/d.
The blood parameters were analyzed by the veterinarian every month. The owners were also asked to give their opinion on the changes observed in the behavior of their pets.

[3] = tested on: dogs presenting signs of fear; experiment: Effect of the nutritional supplement on behavior and physical signs associated with fear in dogs (Example 2); type: in vivo; conditions: 7.5 mg SAMe/kg/day oral for one month, then 2.5 mg/kg/day for two months; sum of 6 parameter scores (FIG. 4)
Description: Another study was conducted to show the effect of administering to dogs a nutritional supplement based on S-adenosyl-L-methionine on the behavior and physical signs associated with fear.
The nutritional supplement used in this test consisted of tablets containing 10, 50 or 100 mg of SAMe. It was administered to the animals at a loading dose of 7.5 mg of SAMe per kg of body weight per day in a single daily oral administration for one month, and then at a maintenance dose of 2.5 mg of SAMe per kg of body weight per day in a single daily oral administration for the next two months.
15 dogs aged between 6 months and 15 years are selected with no restrictions on breed, sex or weight. In the two months preceding inclusion in the study, all the dogs presented signs of fear associated either with inhibited behavior or, conversely, with exaggerated responses. This type of problem had to have been identified in the dog for more than two months. The “overall fear score” (sum of the individual scores for the various parameters monitored) recorded at the start of the experiment had to be greater than 7, the parameters observed being as follows: • Pupil dilation. Score: 0=normal, 1=increased, 2=complete. • Trembling. Score: 0=none, 1=slight, 2=pronounced. • Exploration. […]

[4] = tested on: old dogs presenting behavioral disorders associated with CDS; experiment: Study of SAMe in old dogs presenting behavioral disorders associated with CDS (Example 1); type: in vivo; conditions: for dogs showing an improvement in activity level (owners) / mean activity level of the animals as observed by a veterinarian: at least 2.5 mg SAMe per kg per day
Description: A study was conducted to show the efficacy of S-adenosyl-L-methionine in old dogs presenting behavioral disorders associated with CDS.
S-adenosyl-L-methionine was administered in the form of tablets containing 10, 50 or 100 mg of SAMe.
15 dogs more than 7 years old were selected with no restrictions on breed, sex or weight. All the dogs presented well-established cognitive disorders associated with CDS (cleanliness problems, disorders of activity-sleep cycle, decrease in activity) which had been observed by their owners and by veterinarians.
Dogs presenting diseases requiring medical treatment were excluded from the study, as were dogs which had been treated with psychotropic drugs in the month preceding the study. Also, to avoid biases in the observations, heart, kidney and liver treatments and psychoactive drugs were not permitted during the study.
During the study the dogs received at least the equivalent of 2.5 mg of SAMe per kg of body weight per day in a single daily administration over a period of 4 months.
The dogs were examined by a veterinarian at the start of the experiment and then every month. The blood parameters were analyzed at each veterinary examination.
Experiment number 1: Measurement of the activity level of the dogs.
Experiment number 2: Measurement of the effect on the sleeping time of the dogs.
Experiment number 3: Evaluation of the effect on the anxiety of the dogs.

[5] = after two months of treatment, tosylate salt, 18.5 mg/kg/d
[6] = response to the treatment at D60, n = 17, tosylate salt, 18.5 mg/kg/d
[7] = 3 months, 1,4-butanedisulfonate salt, mean 18 mg/kg/d (FIG. 6)

C[S@@+](CC[C@H](N)C(=O)O)C[C@H]1O[C@@H](n2cnc3c(N)ncnc32)[C@H](O)[C@@H]1O [SAMe, 5′-[[3S-amino-3-carboxypropyl]methyl-(S)-sulfonio]-5′-deoxyadenosine]
average improvement in terms of activity [1, 5]: 57.1% | average improvement in terms of learning behavior, more particularly cleanliness [1, 5]: 57.1% | average improvement in terms of reactivity [1, 5]: 59.5% | owners' impression of their animals under treatment ([1]; end of the study, majority of the owners): more active and reactive | % of dogs, Good response [1, 6]: 41.2% | % of dogs, No response [1, 6]: 35.3% | % of dogs, Poor response [1, 6]: 23.5% | No. of dogs, Good response [1, 6]: 7 | No. of dogs, No response [1, 6]: 6 | No. of dogs, Poor response [1, 6]: 4 | reduction of the standardized geriatric behavior score ([1]; tosylate salt tablets once a day, average 18.5 mg/kg/d, versus placebo over the study period (FIG. 11)): more significant with SAMe than with placebo | cases with improved elimination behavior [2, 7]: 40% | cats with improved elimination behavior (number) [2, 7]: 2 out of 5 | cats exhibiting ambulation or vocalization periods ([2]; 15 days after the start of the experiment (70% at the start)): 30% | play activity of the cats ([2]; after one month (FIG. 8)): promising net effect | exploratory behavior of the cats ([2]; as from 15 days of treatment (FIG. 7)): perceptible activating effect | cats exhibiting ambulation or vocalization periods ([2]; as from the second month (70% at the start)): no cat | cats with a positive result on play activity ([2]; at 2 months (FIG. 8)): 7 out of 10 | interactions/recognition (owners, other animals) ([2]; cats which initially presented an interaction deficit (FIG. 9)): responded rather well | interactions/recognition (owners, other animals) ([2]; cats which manifested hyperattachment (FIG. 9)): more variable | periods of waking with a start or nightmares ([2]; during the 3-month study, 1,4-butanedisulfonate salt, mean 18 mg/kg/d): No cat | efficacy as considered by the owners ([2]; end of the study (3 months)): very good | cats with a return to a normal day-night cycle ([2]; in one month, 1,4-butanedisulfonate salt tablets, mean dose 18 mg/kg/d once a day (FIG. 5)): 7 out of 10 | cats in which aggressiveness or irritability was eliminated (number) ([2]; in three months (FIG. 10)): 4 out of 5 | manifestations of aggressiveness or irritability eliminated ([2]; in three months, encountered in 50% of the cats (FIG. 10)): 80% | side effects ([2]; in vivo): without causing side effects | overall fear score [3]: decreases very substantially | dogs showing an improvement in activity level (owners) ([4]; after one month): more than 70% | mean activity level of the animals as observed by a veterinarian ([4]; after one month, tablets, single daily administration, score -1 reduced, 0 unchanged, 1 increased (FIG. 1)): increased significantly | mean activity level of the animals as observed by a veterinarian ([4]; after the first month, up to 4 months): remained above the animals' normal activity | sleeping time of the animals ([4]; daily for 4 months, variations decreased considerably after two months (FIG. 2)): tended to normalize | efficacy as considered by the owners ([4]; end of the study (4 months)): very good | dogs showing an improvement in activity level (owners) ([4]; first two weeks of the treatment): 38% | anxiety of the animals ([4]; throughout the 4-month period, score 0 none to 3 permanent (FIG. 3)): decreased regularly
